From patent US20110053923A1, “CHEMICAL COMPOUNDS 610” (AstraZeneca, priority 2008, published 2011) come the findings set out here.

In one test the test system is HT29 cells. Description: Cellular SRB assay (Test (d)), potentiation of carboplatin. The format is cell-based. To be noted: for IC50: geometric mean. The method, then:
(d) Cellular—SRB Assay The potentiation factor (PF50) for compounds is a measure of the fold increase in effect of a chemotherapeutic agent, when used in combination with an ATR inhibitor. Specifically, this is calculated as a ratio of the IC50 of control cell growth in the presence of a chemotherapeutic agent, typically carboplatin, divided by the IC50 of cell growth in the presence of this agent and the ATR inhibitor of interest. For this purpose, HT29 cells were seeded at the appropriate density to ensure exponential growth throughout the time of the assay (typically 1000-1500 cells) in each well of a 96-well plate, in a volume of 80 μl and incubated overnight at 37° C. Subsequently, cells were dosed with either DMSO vehicle, or treated with test compounds at fixed concentrations (typically 1, 0.3 & 0.1 μM). Following a one hour incubation at 37° C., the cells were further treated with a 10 point dose response of the chemotherapeutic agent, based on it's known sensitivity (typically 30-0.001 ug/ml for carboplatin). Cells were left to grow for 5 days at 37° C., after which time cell growth was assessed using the sulforhodamine B (SRB) assay (Skehan, P et al, 1990 New colorimetric cytotoxic assay for anticancer-drug screening. J. Natl. Cancer Inst. 82, 1107-1112.). Specifically, the media was removed and cells fixed with 100 μl of ice cold 10% (w/v) trichloroacetic acid. The plates were then incubated at 4° C. for 20 minutes prior to washing 4 times with water. Each well was then stained with 100 μL of 0.4% (w/v) SRB in 1% acetic acid for 20 minutes before a further 4 washes with 1% acetic acid. Plates were then dried for 2 hours at room temperature and the dye was solubilized by the addition of 100 μL Tris Base pH 8.5 into each well. Plates were shaken before measuring optical density at 564 nm (OD564). In order to calculate the PF50, the OD564 values obtained for the dose-response curve of chemotherapeutic agent were expressed as a percentage of the value obtained from cells treated with vehicle alone. Similarly, to act as a control for inclusion of the ATR inhibitor, values from the chemotherapeutic agent tested in combination with a fixed ATR inhibitor concentration were expressed as a percentage of the value obtained from cells treated with the corresponding concentration of ATR inhibitor alone. From these internally-controlled curves, IC50 values were calculated and the PF50 was determined as the ratio of these values, as described above. Compounds are compared using the PF50 value at concentrations of ATR inhibitor that show minimal growth inhibition on their own.

The target of the next test is T1, ATR (Homo sapiens, UniProt Q13535).
T1 construct: obtained from HeLa nuclear extract (CIL Biotech, Mons, Belgium) by immunoprecipitation with rabbit polyclonal antiserum raised to amino acids 400-480 of ATR; host or cells: HeLa nuclear extract
T1 sequence (Q13535 whole entry, the tested form may be a part): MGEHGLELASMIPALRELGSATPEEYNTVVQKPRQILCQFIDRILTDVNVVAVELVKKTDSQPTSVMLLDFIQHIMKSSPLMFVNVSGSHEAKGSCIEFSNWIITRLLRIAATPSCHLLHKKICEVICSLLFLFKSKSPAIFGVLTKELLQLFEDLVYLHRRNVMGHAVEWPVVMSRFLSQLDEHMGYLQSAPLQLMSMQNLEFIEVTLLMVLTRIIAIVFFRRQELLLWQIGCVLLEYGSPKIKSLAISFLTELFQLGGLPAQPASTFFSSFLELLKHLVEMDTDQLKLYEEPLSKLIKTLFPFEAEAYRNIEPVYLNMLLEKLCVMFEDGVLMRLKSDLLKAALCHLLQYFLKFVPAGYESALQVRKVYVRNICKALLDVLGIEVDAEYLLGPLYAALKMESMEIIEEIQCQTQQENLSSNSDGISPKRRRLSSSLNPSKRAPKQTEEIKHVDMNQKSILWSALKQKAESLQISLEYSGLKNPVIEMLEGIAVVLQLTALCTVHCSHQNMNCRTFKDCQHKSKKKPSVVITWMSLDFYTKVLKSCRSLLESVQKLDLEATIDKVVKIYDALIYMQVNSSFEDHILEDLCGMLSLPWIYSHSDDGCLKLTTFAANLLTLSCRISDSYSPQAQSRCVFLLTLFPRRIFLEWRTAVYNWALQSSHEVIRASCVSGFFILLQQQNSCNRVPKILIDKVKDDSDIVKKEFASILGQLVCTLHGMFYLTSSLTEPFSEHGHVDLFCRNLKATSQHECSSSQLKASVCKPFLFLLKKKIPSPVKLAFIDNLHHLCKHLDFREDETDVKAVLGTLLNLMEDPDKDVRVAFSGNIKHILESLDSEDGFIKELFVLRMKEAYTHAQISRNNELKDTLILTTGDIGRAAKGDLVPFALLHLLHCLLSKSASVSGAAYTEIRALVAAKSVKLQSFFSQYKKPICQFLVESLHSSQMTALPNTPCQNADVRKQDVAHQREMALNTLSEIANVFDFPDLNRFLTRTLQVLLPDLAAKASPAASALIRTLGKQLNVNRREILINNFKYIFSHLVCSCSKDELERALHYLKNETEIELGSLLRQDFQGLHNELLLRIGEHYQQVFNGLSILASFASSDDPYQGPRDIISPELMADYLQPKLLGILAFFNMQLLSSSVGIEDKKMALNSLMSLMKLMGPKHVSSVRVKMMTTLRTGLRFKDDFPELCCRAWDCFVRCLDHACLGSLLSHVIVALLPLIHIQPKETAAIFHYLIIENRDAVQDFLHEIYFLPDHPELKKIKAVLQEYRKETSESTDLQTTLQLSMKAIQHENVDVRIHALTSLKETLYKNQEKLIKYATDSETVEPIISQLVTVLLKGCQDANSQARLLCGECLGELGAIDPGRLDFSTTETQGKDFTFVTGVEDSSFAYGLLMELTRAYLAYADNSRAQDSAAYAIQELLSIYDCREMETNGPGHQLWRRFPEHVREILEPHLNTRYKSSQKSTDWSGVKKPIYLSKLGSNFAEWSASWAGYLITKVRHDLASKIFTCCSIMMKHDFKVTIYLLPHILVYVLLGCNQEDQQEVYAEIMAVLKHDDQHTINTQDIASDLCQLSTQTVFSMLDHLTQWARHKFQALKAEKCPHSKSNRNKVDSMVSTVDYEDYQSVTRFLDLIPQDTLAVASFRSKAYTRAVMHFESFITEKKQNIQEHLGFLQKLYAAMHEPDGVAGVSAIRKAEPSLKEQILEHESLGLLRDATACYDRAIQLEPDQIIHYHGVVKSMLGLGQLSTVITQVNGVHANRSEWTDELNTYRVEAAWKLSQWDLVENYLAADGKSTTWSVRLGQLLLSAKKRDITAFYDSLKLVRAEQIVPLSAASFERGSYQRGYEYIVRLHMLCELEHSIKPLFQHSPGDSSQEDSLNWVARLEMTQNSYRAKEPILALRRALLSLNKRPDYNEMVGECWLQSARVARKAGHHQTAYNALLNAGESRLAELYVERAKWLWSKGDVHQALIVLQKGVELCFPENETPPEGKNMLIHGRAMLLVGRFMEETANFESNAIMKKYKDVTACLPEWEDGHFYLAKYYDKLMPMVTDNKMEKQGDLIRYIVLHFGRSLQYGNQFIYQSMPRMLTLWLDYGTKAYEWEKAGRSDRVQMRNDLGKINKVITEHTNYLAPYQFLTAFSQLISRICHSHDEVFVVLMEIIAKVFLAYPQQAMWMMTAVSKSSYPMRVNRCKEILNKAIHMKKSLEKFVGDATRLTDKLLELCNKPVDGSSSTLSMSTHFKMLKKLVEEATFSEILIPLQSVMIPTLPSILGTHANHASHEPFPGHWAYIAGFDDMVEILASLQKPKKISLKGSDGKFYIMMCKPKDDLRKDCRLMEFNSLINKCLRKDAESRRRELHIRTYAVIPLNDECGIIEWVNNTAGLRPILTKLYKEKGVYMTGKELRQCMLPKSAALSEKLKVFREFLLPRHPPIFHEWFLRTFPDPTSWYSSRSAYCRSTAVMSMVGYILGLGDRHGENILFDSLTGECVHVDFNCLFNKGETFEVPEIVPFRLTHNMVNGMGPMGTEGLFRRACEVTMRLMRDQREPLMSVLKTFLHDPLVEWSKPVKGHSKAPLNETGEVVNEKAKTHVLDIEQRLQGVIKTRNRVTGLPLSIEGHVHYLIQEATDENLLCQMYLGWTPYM
T1 sequence (Q8WXE1 whole entry partner, the tested form may be a part): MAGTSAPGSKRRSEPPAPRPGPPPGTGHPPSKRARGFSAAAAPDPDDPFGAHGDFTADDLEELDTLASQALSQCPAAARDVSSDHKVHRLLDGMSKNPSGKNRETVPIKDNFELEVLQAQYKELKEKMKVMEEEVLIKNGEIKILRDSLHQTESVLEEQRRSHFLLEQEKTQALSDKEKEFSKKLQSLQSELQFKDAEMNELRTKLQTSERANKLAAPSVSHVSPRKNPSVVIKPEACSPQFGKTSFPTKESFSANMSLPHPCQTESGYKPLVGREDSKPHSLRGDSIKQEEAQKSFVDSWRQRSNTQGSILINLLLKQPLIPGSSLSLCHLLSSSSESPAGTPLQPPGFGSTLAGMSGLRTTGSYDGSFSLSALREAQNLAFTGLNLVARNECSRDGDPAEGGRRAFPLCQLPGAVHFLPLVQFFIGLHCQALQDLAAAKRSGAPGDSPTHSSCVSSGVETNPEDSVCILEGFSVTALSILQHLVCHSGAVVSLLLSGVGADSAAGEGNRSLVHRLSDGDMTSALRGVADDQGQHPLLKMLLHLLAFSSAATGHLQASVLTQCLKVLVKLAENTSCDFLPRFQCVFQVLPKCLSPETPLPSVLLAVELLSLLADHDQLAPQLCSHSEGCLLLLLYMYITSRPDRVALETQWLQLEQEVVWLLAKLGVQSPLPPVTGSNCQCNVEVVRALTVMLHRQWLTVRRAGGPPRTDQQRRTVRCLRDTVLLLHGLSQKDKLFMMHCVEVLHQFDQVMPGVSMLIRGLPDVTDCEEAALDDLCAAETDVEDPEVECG
Kind of test: Enzyme Assay - ATR (Test (a)).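 Also: kinase activity of bead-bound ATR toward a GST-p53 N-terminal fragment substrate, 1 h at 37 °C, read by chemiluminescence, with inhibitor-free wells as control.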 The format is biochemical. Particulars: ATR immunoprecipitated from HeLa nuclear extract; 3 μM ATP; average of individual tests; read-out: ATR average IC50.

The next test addresses mTOR (Homo sapiens, UniProt P42345). Description: Enzyme - mTOR Kinase Assay (Echo).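 Also: enzyme expressed in HEK293 cells, 2 h incubation at room temperature, read-out is phosphorylation of a biotinylated peptide substrate detected with an anti-phospho p70 S6 Kinase (T389) antibody, inhibition lowers signal.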 It counts as biochemical. Particulars: recombinant FLAG-tagged mTOR (1362-2549); AlphaScreen; ATP 20 μM. Background: Alpha assays give light when donor and acceptor beads are brought close together.

Like-named read-outs stand apart in the source and are kept apart here.

Chain of mTOR (P42345 1362-2549): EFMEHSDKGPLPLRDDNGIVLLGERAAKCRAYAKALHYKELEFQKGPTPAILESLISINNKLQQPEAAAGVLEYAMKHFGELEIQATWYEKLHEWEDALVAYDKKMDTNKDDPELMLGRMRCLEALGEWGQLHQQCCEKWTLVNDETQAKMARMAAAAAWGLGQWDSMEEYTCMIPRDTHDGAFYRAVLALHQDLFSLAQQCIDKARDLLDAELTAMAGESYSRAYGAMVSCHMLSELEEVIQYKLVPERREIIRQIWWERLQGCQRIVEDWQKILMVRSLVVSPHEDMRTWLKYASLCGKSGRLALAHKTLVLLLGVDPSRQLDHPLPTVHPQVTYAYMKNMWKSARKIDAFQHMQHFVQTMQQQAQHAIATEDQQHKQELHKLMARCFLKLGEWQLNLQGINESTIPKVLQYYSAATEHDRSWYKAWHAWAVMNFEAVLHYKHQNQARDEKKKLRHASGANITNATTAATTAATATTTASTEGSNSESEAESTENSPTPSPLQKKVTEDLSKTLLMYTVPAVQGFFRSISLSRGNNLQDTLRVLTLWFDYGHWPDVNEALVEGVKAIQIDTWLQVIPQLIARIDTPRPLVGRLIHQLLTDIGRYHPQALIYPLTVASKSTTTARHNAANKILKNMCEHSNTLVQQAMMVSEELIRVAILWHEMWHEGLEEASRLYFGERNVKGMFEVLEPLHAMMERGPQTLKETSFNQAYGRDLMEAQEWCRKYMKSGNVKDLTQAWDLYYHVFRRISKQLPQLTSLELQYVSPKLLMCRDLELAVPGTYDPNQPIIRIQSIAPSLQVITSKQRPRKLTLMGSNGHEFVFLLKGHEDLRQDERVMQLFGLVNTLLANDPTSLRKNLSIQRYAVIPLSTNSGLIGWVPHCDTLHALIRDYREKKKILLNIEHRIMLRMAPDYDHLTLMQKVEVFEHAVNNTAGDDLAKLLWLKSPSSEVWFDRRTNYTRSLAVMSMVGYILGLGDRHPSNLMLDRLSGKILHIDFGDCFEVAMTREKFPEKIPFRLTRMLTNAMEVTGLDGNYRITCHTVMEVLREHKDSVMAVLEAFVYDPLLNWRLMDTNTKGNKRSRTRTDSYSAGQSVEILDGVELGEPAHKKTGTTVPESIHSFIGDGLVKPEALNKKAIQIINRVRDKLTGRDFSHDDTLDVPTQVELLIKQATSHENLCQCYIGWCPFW

A word on the IC50: it is the concentration that gives 50% inhibition. `C[C@@H]1COCCN1c1cc(C2(S(C)(=O)=O)CC2)nc(-c2cccc3[nH]ccc23)n1` [Example 3.01, 4-{4-[(3R)-3-Methylmorpholin-4-yl]-6-[1-(methylsulfonyl)cyclopropyl]pyrimidin-2-yl}-1H-indole]: the IC50 is 1.96 µg/mL with HT29 cells (Homo sapiens, HT-29, 120 h, Carboplatin + 0.1 uM Example 3.01, 5 days growth, read-out: IC50) and 0.39 µg/mL in the test on HT29 cells (Homo sapiens, HT-29, 120 h, Carboplatin + 0.3 uM Example 3.01, 5 days growth, read-out: IC50). Moreover, the figures for the PF50 with HT29 cells (potentiation factor of Carboplatin by 0.1 uM Example 3.01 (ratio of IC50 values)) and in the test on HT29 cells (potentiation factor of Carboplatin by 0.3 uM Example 3.01 (ratio of IC50 values)) were 2.02 and 10.08, respectively.

For the compound `Cc1cc(-c2nc(N3CCOC[C@H]3C)cc(C3(S(C)(=O)=O)CC3)n2)c2cc[nH]c2c1` [Example 3.02, 6-Methyl-4-{4-[(3R)-3-methylmorpholin-4-yl]-6-[1-(methylsulfonyl)cyclopropyl]pyrimidin-2-yl}-1H-indole], the IC50 on ATR was found to be 0.00666 µM; at mTOR, 0.0972 µM.

In the case of `C[C@H]1COCCN1c1cc(C2(S(=O)(=O)C3CC3)CCOCC2)nc(-c2cccc3[nH]ccc23)n1` [Example 2.02, 4-{4-[4-(Cyclopropylsulfonyl)tetrahydro-2H-pyran-4-yl]-6-[(3S)-3-methylmorpholin-4-yl]pyrimidin-2-yl}-1H-indole], the IC50 at ATR turned out to be 0.376 µM; at mTOR it was 0.467 µM.

For `C[C@@H]1COCCN1c1cc(C2(S(=O)(=O)C3CC3)CCOCC2)nc(-c2cccc3[nH]ccc23)n1` [Example 3.19, 4-{4-[4-(Cyclopropylsulfonyl)tetrahydro-2H-pyran-4-yl]-6-[(3R)-3-methylmorpholin-4-yl]pyrimidin-2-yl}-1H-indole], the figures for the half-maximal inhibitory concentration (IC50) on ATR and on mTOR were 0.0976 µM and 2.82 µM, respectively.

As for `C[C@H]1COCCN1c1cc(C2(S(=O)(=O)C3CC3)CCNCC2)nc(-c2cccc3[nH]ccc23)n1` [Example 2.01, 4-{4-[4-(Cyclopropylsulfonyl)piperidin-4-yl]-6-[(3S)-3-methylmorpholin-4-yl]pyrimidin-2-yl}-1H-indole], the results for the IC50 on ATR and at mTOR were 0.0268 µM and 0.497 µM, respectively.

Turning to `C[C@@H]1COCCN1c1cc(C2(S(=O)(=O)C3CC3)CC2)nc(-c2cccc3[nH]ccc23)n1` [Example 3.17, 4-{4-[1-(Cyclopropylsulfonyl)cyclopropyl]-6-[(3R)-3-methylmorpholin-4-yl]pyrimidin-2-yl}-1H-indole], the concentration for half-maximal inhibition (IC50) was 0.00226 µM at ATR and 0.0978 µM on mTOR.

With `CC(C)S(=O)(=O)C1(c2cc(N3CCOC[C@H]3C)nc(-c3cccc4[nH]ccc34)n2)CCOCC1` [Example 3.24, 4-(4-{4-[(1-Methylethyl)sulfonyl]tetrahydro-2H-pyran-4-yl}-6-[(3R)-3-methylmorpholin-4-yl]pyrimidin-2-yl)-1H-indole], the IC50 on ATR was 0.261 µM; on mTOR, 6.15 µM.

Turning to `COc1cc(-c2nc(N3CCOC[C@H]3C)cc(C3(S(C)(=O)=O)CC3)n2)c2cc[nH]c2c1` [Example 3.07, 6-methoxy-4-{4-[(3R)-3-methylmorphohn-4-yl]-6-[1-(methylsulfonyl)cyclopropyl]pyrimidin-2-yl}-1H-indole], the IC50 at ATR stood at 0.0124 µM; at mTOR, 0.0241 µM.

On to `C[C@H]1COCCN1c1cc(C2(S(C)(=O)=O)CCCC2)nc(-c2cccc3[nH]ccc23)n1` [Example 2.03, 4-{4-[(3S)-3-Methylmorpholin-4-yl]-6-[1-(methylsulfonyl)cyclopentyl]pyrimidin-2-yl}-1H-indole], for which the IC50 on ATR is 0.00621 µM; at mTOR it was 0.099 µM.

On to `CS(=O)(=O)C1(c2cc(N3CCOCC3)nc(-c3cccc4[nH]ccc34)n2)CCNCC1` [Example 1.08, 4-{4-[4-(Methylsulfonyl)piperidin-4-yl]-6-morpholin-4-ylpyrimidin-2-yl}-1H-indole], for which the concentration for half-maximal inhibition (IC50) on ATR worked out at 0.00944 µM; at mTOR, 0.231 µM.

Turning to `Cc1cc(-c2nc(N3CCOCC3)cc(C3(S(C)(=O)=O)CC3)n2)c2cc[nH]c2c1` [Example 1.02, 6-Methyl-4-{4-[1-(methylsulfonyl)cyclopropyl]-6-morpholin-4-ylpyrimidin-2-yl}-1H-indole], the figures for the 50% inhibitory concentration (IC50) on ATR and at mTOR were 0.00767 µM and 0.11 µM, respectively.

Turning to `C[C@@H]1COCCN1c1cc(C2(S(C)(=O)=O)CC2)nc(-c2cc(F)cc3[nH]ccc23)n1` [Example 3.06], the IC50 on ATR came to 0.00345 µM; on mTOR, 0.038 µM.

With `C[C@@H]1COCCN1c1cc(C2(S(C)(=O)=O)CCOCC2)nc(-c2cc(F)cc3[nH]ccc23)n1` [Example 3.13, 6-fluoro-4-{4-[(3R)-3-methylmorpholin-4-yl]-6-[4-(methylsulfonyl)tetrahydro-2H-pyran-4-yl]pyrimidin-2-yl}-1H-indole], the concentration for half-maximal inhibition (IC50) was determined as 0.00153 µM on ATR and 0.25 µM on mTOR.

With `C[C@@H]1COCCN1c1cc(C2(S(C)(=O)=O)CCOCC2)nc(-c2cc(C#N)cc3[nH]ccc23)n1` [Example 3.14, 4-{4-[(3R)-3-methylmorphohn-4-yl]-6-[4-(methylsulfonyl)tetrahydro-2H-pyran-4-yl]pyrimidin-2-yl}-1H-indole-6-carbonitrile], the results for the IC50 at ATR and on mTOR were 0.0142 µM and 0.692 µM, respectively.

Turning to `N.N.O=C([O-])C1(C(=O)[O-])CCC1.[Pt+2]` [Carboplatin, reference compound], the IC50 in the test with HT29 cells (Carboplatin alone, 5 days growth) is 3.97 µg/mL.

For `Cc1cc2c(-c3nc(N4CCOC[C@H]4C)cc(C4(S(C)(=O)=O)CC4)n3)cccc2[nH]1` [Example 3.03, 2-Methyl-4-{4-[(3R)-3-methylmorpholin-4-yl]-6-[1-(methylsulfonyl)cyclopropyl]pyrimidin-2-yl}-1H-indole], the IC50 at ATR is 0.00546 µM; on mTOR, 0.0463 µM.

Take `CC(C)S(=O)(=O)C1(c2cc(N3CCOC[C@H]3C)nc(-c3cccc4[nH]ccc34)n2)CC1` [Example 3.23, 4-(4-{1-[(1-Methylethyl)sulfonyl]cyclopropyl}-6-[(3R)-3-methylmorpholin-4-yl]pyrimidin-2-yl)-1H-indole]: the IC50 on ATR turned out to be 0.00247 µM; at mTOR it was 0.0891 µM.

On to `C[C@@H]1COCCN1c1cc(C2(S(C)(=O)=O)CCOCC2)nc(-c2cc(Cl)cc3[nH]ccc23)n1` [Example 3.12], for which the half-maximal inhibitory concentration (IC50) at ATR is 0.0025 µM; at mTOR, 0.42 µM.

Take `CS(=O)(=O)C1(c2cc(N3CCOCC3)nc(-c3cc(Cl)cc4[nH]ccc34)n2)CC1` [Example 1.06, 6-chloro-4-{4-[1-(methylsulfonyl)cyclopropyl]-6-morpholin-4-ylpyrimidin-2-yl}-1H-indole]: the IC50 was 0.0158 µM at ATR and 0.0712 µM at mTOR.

In the case of `C[C@H]1COCCN1c1cc(C2(S(C)(=O)=O)CCOCC2)nc(-c2cccc3[nH]ccc23)n1` [Example 2.04, 4-{4-[(3S)-3-Methylmorpholin-4-yl]-6-[4-(methylsulfonyl)tetrahydro-2H-pyran-4-yl]pyrimidin-2-yl}-1H-indole], the IC50 stood at 0.00455 µM at ATR and 0.3 µM on mTOR.

With `CS(=O)(=O)C1(c2cc(N3CCOCC3)nc(-c3cc(C#N)cc4[nH]ccc34)n2)CC1` [Example 1.05, 4-{4-[1-(methylsulfonyl)cyclopropyl]-6-morpholin-4-ylpyrimidin-2-yl}-1H-indole-6-carbonitrile], the IC50 on ATR turned out to be 0.0659 µM; on mTOR, 0.326 µM.

Regarding `CCS(=O)(=O)C1(c2cc(N3CCOC[C@H]3C)nc(-c3cccc4[nH]ccc34)n2)CCOCC1` [Example 3.21, 4-{4-[4-(Ethylsulfonyl)tetrahydro-2H-pyran-4-yl]-6-[(3R)-3-methylmorpholin-4-yl]pyrimidin-2-yl}-1H-indole], the IC50 stood at 0.00689 µM on ATR and 0.686 µM on mTOR.
